From patent US12594278B2, “Method for treatment of muscular dystrophy” (CHILDREN'S NATIONAL MEDICAL CENTER, priority 2019, dated 2026)

Tests used:
FAP = settings: stated without data; cited from earlier work
A2-B6A/J mice = assay: Notexin injury of A2-B6A/J TA muscle with or without recombinant AnxA2; assay type: in vivo, mouse; settings: 10 μg AnxA2 at injury site, 28 d after injury, vs notexin alone
Protocol: To test if this was also true in vivo, the AnxA2-naïve A2-B6A/J mice were used for receiving notexin to injure their muscle with or without the addition of 10 μg purified AnxA2 at the site of injury. […] This provides direct evidence supporting that extracellular AnxA2 is not only necessary, but also sufficient for driving FAP-mediated in vivo adipogenic conversion of the regenerating dysferlinopathic muscles.
Microscopy and Image Analysis. Microscopy was performed using an Olympus BX61 VS120-S5 Virtual Slide Scanning System with UPlanSApo 40×/0.95 objective, Olympus XM10 monochrome camera or Allied vision Pike F-505C color camera, and Olympus VS-ASW FL 2.7 imaging software. […] Perilipin-1 quantification was performed by thresholding the image to exclude non-specific staining and then calculating the area of each lipid deposit encircled by perlipin-1 (excluding those in the epi- or perimysium) using MetaMorph software (Molecular Devices). The total area encircled by perilipin-1 was calculated for all lipid deposits across the muscle and expressed relative to the total cross-sectional area. PDGFRα and AnxA2 positive area was calculated using CellSens software (Olympus) by thresholding to remove non-specific staining and calculating the total positive area (again, excluding any epi- or perimysial staining) relative to the entire muscle cross-section. […]

B6A/J FAPs = assay: Spontaneous adipogenesis of purified B6A/J FAPs treated with recombinant AnxA2 (Oil Red O); assay type: cell-based, mouse; settings: 100 nM AnxA2 from day 3; 24Mo B6A/J FAPs; vs AnxA2 untreated FAPs
Excerpt: The contribution of AnxA2 to the adipogenic fate of the FAPs was next examined in dysferlin-deficient muscle. For this FAPs were isolated from 12Mo WT, B6A/J and A2-B6A/J muscle and their spontaneous adipogenesis in vitro was quantified. […] The spontaneous adipogenesis of B6A/J FAPs indicates these cells are committed to adipogenesis prior to extraction, which can be caused by the pro-adipogenic niche in dysferlinopathic muscle. The lack of spontaneous adipogenesis in A2-B6A/J FAPs can be caused by the lack of a pro-adipogenic niche or restricted adipogenic potential of the FAPs in the absence of AnxA2 (FIG. 8). As adipogenic replacement of muscle is enhanced with age, the niche (PDGFRα^−) and FAP (PDGFRα^+) cells from 24Mo B6A/J and A2-B6A/J muscles were isolated to allow for the niche cells to reach their maximal potential. These FAP and niche cells were then mixed in a 1:1 ratio (20,000 cells total; 10,000 FAPs) from the same or different genetic background and their spontaneous adipogenesis was quantified as the extent of oil red staining/20,000 FAPs. […] To directly test if it is the AnxA2 or another factor secreted by the niche cells that influences FAP adipogenesis, a purified population of B6A/J FAPs ([…]) were treated with 100 nM AnxA2 and their spontaneous adipogenesis was quantified as the extent of oil red staining/20,000 FAPs. […]

Row | Compound | FAP adipogenesis (FAP) | accumulation of PDGFRα FAPs in TA after notexin injury (A2-B6A/J mice) | perilipin-1 labeled adipogenic deposits in TA after notexin injury (A2-B6A/J mice) | increase in spontaneous adipogenic differentiation of dysferlinopathic FAPs (oil red staining/20,000 FAPs) (B6A/J FAPs)
1 | CC(CN1c2ccccc2Sc2ccccc21)N(C)C (stereo not shown) [promethazine] | inhibits FAP adipogenesis | – | – | –
2 | AnxA2: recombinant AnxA2 (RayBiotech, #230-30023), membrane repair protein Annexin A2 | – | increased accumulation | increased accumulation | > 2 fold
